# Results as given in US7205306B2, “Substituted pyrazinones, pyridines and pyrimidines as corticotropin releasing factor ligands” (Bristol-Myers Squibb Pharma Company, priority 2001, dated 2007).
row,Compound,melting point [°C]
1,"CCC(CC)n1cc(Cl)nc(N2CCc3cc(Cl)cc(Cl)c32)c1=O [Example 401, 5-Chloro-3-(5,7-dichloro-2,3-dihydro-1H-indol-1-yl)-1-(1-ethylpropyl)-2(1H)-pyrazinone]",168 to 170
2,"CCC(CCOC)n1cc(Cl)nc(N2CCc3cc(Cl)cc(Cl)c32)c1=O (stereo not shown) [Example 410, 5-Chloro-3-(5,7-dichloro-2,3-dihydro-1H-indol-1-yl)-1-(1-ethyl-3-methoxypropyl)-2(1H)-pyrazinone]",95 to 97
3,"CCC(COC)n1cc(Cl)nc(N2CCc3cc(OC)cc(Cl)c32)c1=O (stereo not shown) [Example 413, 5-Chloro-3-(7-chloro-5-methoxy-2,3-dihydro-1H-indol-1-yl)-1-[1-(methoxymethyl)propyl]-2(1H)-pyrazinone]",131 to 133
4,"CCC(CC)n1cc(C)nc(N2CCc3cc(Cl)cc(Cl)c32)c1=O [Example 451, 3-(5,7-Dichloro-2,3-dihydro-1H-indol-1-yl)-1-(1-ethylpropyl)-5-methyl-2(1H)-pyrazinone]",137 to 139
5,"CCC(CC)n1cc(Br)nc(N2CCc3cc(Cl)cc(Cl)c32)c1=O [Example 507, 5-Bromo-3-(5,7-dichloro-2,3-dihydro-1H-indol-1-yl)-1-(1-ethylpropyl)-2(1H)-pyrazinone]",158 to 160
6,"CC[C@H](C1CC1)n1cc(Cl)nc(N2CCc3cc(Cl)cc(Cl)c32)c1=O [Example 511, 5-Chloro-1-[(1R)-1-cyclopropylpropyl]-3-(5,7-dichloro-2,3-dihydro-1H-indol-1-yl)-2(1H)-pyrazinone]",166 to 168
7,"CC[C@H](C1CC1)n1cc(Cl)nc(N2CCc3cc(Br)cc(Br)c32)c1=O [Example 512, 5-Chloro-1-[(1R)-1-cyclopropylpropyl]-3-(5,7-dibromo-2,3-dihydro-1H-indol-1-yl)-2(1H)-pyrazinone]",164 to 165
8,"CC[C@H](C1CC1)n1cc(Cl)nc(N2CCc3cc(OC)c(F)c(Cl)c32)c1=O [Example 513, 5-Chloro-3-(7-chloro-6-fluoro-5-methoxy-2,3-dihydro-1H-indol-1-yl)-1-[(1R)-1-cyclopropylpropyl]-2(1H)-pyrazinone]",128 to 130
9,"CC[C@@H](C1CC1)n1cc(Cl)nc(N2CCc3cc(Cl)cc(Cl)c32)c1=O [Example 517, 5-Chloro-1-[(1S)-1-cyclopropylpropyl]-3-(5,7-dichloro-2,3-dihydro-1H-indol-1-yl)-2(1H)-pyrazinone]",157 to 159
10,"CC[C@@H](C1CC1)n1cc(Cl)nc(N2CCc3cc(Br)cc(Br)c32)c1=O [Example 518, 5-Chloro-1-[(1S)-1-cyclopropylpropyl]-3-(5,7-dibromo-2,3-dihydro-1H-indol-1-yl)-2(1H)-pyrazinone]",165
11,"CC[C@@H](C1CC1)n1cc(Cl)nc(N2CCc3cc(OC)c(F)c(Cl)c32)c1=O [Example 519, 5-Chloro-3-(7-chloro-6-fluoro-5-methoxy-2,3-dihydro-1H-indol-1-yl)-1-[(1S)-1-cyclopropylpropyl]-2(1H)-pyrazinone]",127 to 129
12,"COC[C@@H](C)n1cc(Cl)nc(N2CCc3cc(Cl)cc(Cl)c32)c1=O [Example 520, 5-Chloro-3-(5,7-dichloro-2,3-dihydro-1H-indol-1-yl)-1-[(1R)-2-methoxy-1-methylethyl]-2(1H)-pyrazinone]",93 to 95
13,"COC[C@@H](C)n1cc(Cl)nc(N2CCc3cc(Br)cc(Br)c32)c1=O [Example 521, 5-Chloro-3-(5,7-dibromo-2,3-dihydro-1H-indol-1-yl)-1-[(1R)-2-methoxy-1-methylethyl]-2(1H)-pyrazinone]",119 to 120
14,"CCC(COC)n1cc(Cl)nc(N2CCc3cc(OC)c(F)c(Cl)c32)c1=O (stereo not shown) [Example 522, 5-Chloro-3-(7-chloro-6-fluoro-5-methoxy-2,3-dihydro-1H-indol-1-yl)-1-[1-(methoxymethyl)propyl]-2(1H)-pyrazinone]",140 to 142
15,"CC[C@H](COC)n1cc(Cl)nc(N2CCc3cc(Cl)cc(Cl)c32)c1=O [Example 524, 5-Chloro-3-(5,7-dichloro-2,3-dihydro-1H-indol-1-yl)-1-[(1R)-1-(methoxymethyl)propyl]-2(1H)-pyrazinone]",143 to 146
16,"CC[C@H](COC)n1cc(Br)nc(N2CCc3cc(Cl)cc(Cl)c32)c1=O [Example 527, 5-Bromo-3-(5,7-dichloro-2,3-dihydro-1H-indol-1-yl)-1-[(1R)-1-(methoxymethyl)propyl]-2(1H)-pyrazinone]",150 to 152
17,"CC[C@H](COC)n1cc(Br)nc(N2CCc3cc(OC)c(F)c(Cl)c32)c1=O [Example 528, 5-Bromo-3-(7-chloro-6-fluoro-5-methoxy-2,3-dihydro-1H-indol-1-yl)-1-[(1R)-1-(methoxymethyl)propyl]-2(1H)-pyrazinone]",150 to 152
18,"CC[C@@H](COC)n1cc(Cl)nc(N2CCc3cc(Cl)cc(Cl)c32)c1=O [Example 530, 5-Chloro-3-(5,7-dichloro-2,3-dihydro-1H-indol-1-yl)-1-[(1S)-1-(methoxymethyl)propyl]-2(1H)-pyrazinone]",143 to 146
19,"CC[C@@H](COC)n1cc(Br)nc(N2CCc3cc(Cl)cc(Cl)c32)c1=O [Example 531, 5-Bromo-3-(5,7-dichloro-2,3-dihydro-1H-indol-1-yl)-1-[(1S)-1-(methoxymethyl)propyl]-2(1H)-pyrazinone]",152 to 154
20,"CSCCn1cc(Cl)nc(N2CCc3cc(Cl)cc(Cl)c32)c1=O [Example 535, 5-Chloro-3-(5,7-dichloro-2,3-dihydro-1H-indol-1-yl)-1-[2-(methylthio)ethyl]-2(1H)-pyrazinone]",127 to 128
21,"CCC(C)n1cc(Cl)nc(N2CCc3cc(Br)cc(Cl)c32)c1=O (stereo not shown) [Example 538, 3-(5-Bromo-7-chloro-2,3-dihydro-1H-indol-1-yl)-5-chloro-1-methylpropyl-2(1H)-pyrazinone]",150
22,"CCc1cn(C(CC)CC)c(=O)c(N2CCc3cc(Cl)cc(Cl)c32)n1 [Example 539, 3-(5,7-Dichloro-2,3-dihydro-1H-indol-1-yl)-5-ethyl-1-(1-ethylpropyl)-2(1H)-pyrazinone]",136 to 137
23,"CCC(CC)n1cc(Cl)nc(N2CCc3cc(Br)cc(Cl)c32)c1=O [Example 540, 3-(5-Bromo-7-chloro-2,3-dihydro-1H-indol-1-yl)-5-chloro-1-(1-ethylpropyl)-2(1H)-pyrazinone]",156 to 157
24,"CCC(CC)n1cc(C#N)nc(N2CCc3cc(Cl)cc(Cl)c32)c1=O [Example 541, 6-(5,7-Dichloro-2,3-dihydro-1H-indol-1-yl)-4-(1-ethylpropyl)-4,5-dihydro-5-oxo-2-pyrazinecarbonitrile]",197 to 199
25,"CC[C@H](C1CC1)n1cc(Cl)nc(N2CCc3cc(Br)cc(Cl)c32)c1=O [Example 542, 3-(5-Bromo-7-chloro-2,3-dihydro-1H-indol-1-yl)-5-chloro-1-[(1R)-1-cyclopropylpropyl]-2(1H)-pyrazinone]",154 to 156
